2 compounds from US7090790B2, “Chemiluminescent composition producing white light” (priority 2004, dated 2006) can be followed below.

A short description of series [1]: Solubility in chloroform at 20° C., Formula 2 vs Formula 3. To be noted: in 100 mL of chloroform at 20° C. It counts as physicochemical.
Series [2] is described as follows: Intensity of white light, Experimental Example 2 (−25° F.). To be noted: low temperature. The protocol: The oxalate solutions and the activator solutions prepared in Examples 1 and 2, and Comparative Examples 1 and 2 were mixed in a volume ratio of 3:1 to chemiluminescent compositions, respectively.
The procedure was repeated in the same manner as in Experimental Example 1, except that the temperature of the thermostat was set to −25° F.

For `CCCCCCCCCCCCN1C(=O)c2cc(Cl)c3c4c(Cl)cc5c6c(cc(Cl)c(c7c(Cl)cc(c2c37)C1=O)c64)C(=O)N(CCCCCCCCCCCC)C5=O` [Dodecyl (Formula 3), N,N′-didodecyl-1,6,7,12-tetrachloroperylene-3,4,9,10-dicarboximide], the “Solubility, 1,6,7,12-tetrahaloperylenedicarboximide of Formula 3 (X is Cl)” value in series [1] is 65 g. In series [2], the “precipitation of the dye in the chemiluminescent composition” value is reported as “no precipitates were formed even at low temperature”.
On to `CCCCCCN1C(=O)c2cc(Cl)c3c4c(Cl)cc5c6c(cc(Cl)c(c7c(Cl)cc(c2c37)C1=O)c64)C(=O)N(CCCCCC)C5=O` [Hexyl (Formula 3), N,N′-dihexyl-1,6,7,12-tetrachloroperylene-3,4,9,10-dicarboximide], for which the “Solubility, 1,6,7,12-tetrahaloperylenedicarboximide of Formula 3 (X is Cl)” value in series [1] is 72 g.
